Source: US20240051952A1, “HMOX1 INDUCERS” (Mitobridge Inc., priority 2019, published 2024)

Each molecule was assayed on Human Heme Oxygenase-1 (HMOX-1) (assay: ELISA assay to measure human heme oxygenase-1 (HMOX-1) in HepG2 lysate). Settings: fold change of human HMOX1 protein levels relative to DMSO control, HepG2.
Type: cell-based
Experimental: Example 143. ELISA Assay to Measure Human Heme Oxygenase-1 (HMOX-1) in HepG2 lysate
Reagents and Technical Notes:
ELISA capture antibody, standard HO-1, detection antibody and streptavidin HRP were supplied in the DuoSet IC Human total HO-1 ELISA from R&D systems (DYC3776-2). The substrate cocktail was KPL LumiGLO reserve Chemiluminescent Substrate (54-71-00). PBS was Corning Cellgro Cell Culture (21-040-CV). 10×PBS+0.05% tween20 (PBST) was from KPL.
All incubations of the plate were at room temperature (20° C.) in a closed drawer.
The ELISA plate was processed manually. All loadings were with a multichannel pipet. Plates were emptied by shaking into the sink and tapping onto paper towels to remove any remaining reagent. Plate washing was accomplished by loading all wells with PBS+0.05% tween20 (PBST) using a squirt bottle, shaking the PBST out and tapping the plate onto paper towels.
Preparation of the ELISA Plate: • 1. anti-HO-1 capture antibody was 1440 μg/ml after reconstitution in PBS. This antibody was diluted to 8 μg/ml in PBS and 50 μl per well was added to a 384 well greiner “lumitrac 200” plate. Incubated overnight. • 2. The plate was emptied and 100 μl PBS+1% BSA added to all wells. Incubated 90 minutes at room temperature.
Preparation of HepG2 Lysate: • 1. Cells were cultured in a 96-well tissue culture plate washed with PBS and then the plate frozen at −70° C. overnight. Plates were allowed to warm to ice temperature in an ice bucket. 20 μl of PBS, 0.5% Triton X100, 1 mM EDTA with 1×HALT™ protease inhibitors was added to each well and the plates incubated on ice for 1 hour. • 2. The lysates were frozen at −20° C. overnight.
Measurement of HMOX1 (“HO-1”) • 1. In a polypropylene 384 well plate, human HO-1(after reconstitution in PBS+0.5% Triton+1 mM EDTA) was serially diluted from 20 ng/ml 2-fold in PBS+0.5% triton-X100, 1 mM EDTA to make a 12-point standard curve including a zero point. • 2. In a polypropylene 96 well plate, HepG2 lysate was diluted 1 to 20 in Diluent #4 from DUOSET kit in which the assay standard is also diluted. • 3. The PBS+1% BSA was emptied from the ELISA plate and 30 μl of all samples and standards were added (duplicates recommended). The plate was incubated 90 minutes. • 4. Emptied plate and washed 4 times with PBST. • 5. Diluted HO-1 detection antibody to 200 ng/ml in PBS+1% BSA and added 30 μl to all wells. Incubated 90 minutes. • 6. Emptied plate and washed 4 times with PBST. • 7. Added 30 μl streptavidin HRP at 1/200 in PBS+1% BSA (stock streptavidin concentration not specified) to all wells. Incubated 30 minutes. • 8. Emptied plate and washed 4 times with PBST. • 9. Diluted Lumiglo reserve reagent two parts buffer to one part lumiglo substrate. Added 30 μl to all wells. Incubated 5 minutes. • 10. Measured chemiluminescence on spectramax M5 using 150 ms integration.
Table 1 below lists EC50 and fold changes of human HMOX1 protein levels relative to DMSO control upon treatment with representative compounds.
In the case of Cn1c(Nc2nc3ccc(OC4CCOCC4)cc3o2)nc2cc(C(=O)NCCOCCO)ccc21 [Example 138, N-(2-(2-hydroxyethoxy)ethyl)-1-methyl-2-((6-((tetrahydro-2H-pyran-4-yl)oxy)benzo[d]oxazol-2-yl)amino)-1H-benzo[d]imidazole-5-carboxamide], the “Maximum Fold induction” value is reported as 20.
CC(C)c1ccc2nc(Nc3nc4cc(C(=O)NCCO)ccc4n3C)oc2c1 [Example 61, N-(2-hydroxyethyl)-2-((6-isopropylbenzo[d]oxazol-2-yl)amino)-1-methyl-1H-benzo[d]imidazole-5-carboxamide] was tested, and the “Maximum Fold induction” value was 60.
CC1CCc2nc(Nc3nc4cc(C(=O)NOCCO)ccc4n3C)sc2C1 (stereo not drawn) [Example 131, N-(2-hydroxyethoxy)-1-methyl-2-((6-methyl-4,5,6,7-tetrahydrobenzo[d]thiazol-2-yl)amino)-1H-benzo[d]imidazole-5-carboxamide] was tested, and the “Maximum Fold induction” value was 35-62.
With Cn1c(Nc2nc3ccc(C(F)(F)F)cc3o2)nc2cc(C(=O)NCCN3CCCC3)ccc21 [Example 36, 1-methyl-N-(2-(pyrrolidin-1-yl)ethyl)-2-((6-(trifluoromethyl)benzo[d]oxazol-2-yl)amino)-1H-benzo[d]imidazole-5-carboxamide] the “Maximum Fold induction” value was 42.
In the case of Cn1c(Nc2nc3cccc(C(F)(F)F)c3o2)nc2cc(C(=O)NCCOCCO)ccc21 [Example 117, N-(2-(2-hydroxyethoxy)ethyl)-1-methyl-2-((7-(trifluoromethyl)benzo[d]oxazol-2-yl)amino)-1H-benzo[d]imidazole-5-carboxamide], the “Maximum Fold induction” value is reported as 38.
COCCNC(=O)c1ccc2c(c1)nc(Nc1nc3ccc(OC(F)(F)F)cc3s1)n2C1CCOCC1 [Example 2e, N-(2-methoxyethyl)-1-(tetrahydro-2H-pyran-4-yl)-2-((6-(trifluoromethoxy)benzo[d]thiazol-2-yl)amino)-1H-benzo[d]imidazole-5-carboxamide] was tested, and the “Maximum Fold induction” value was 20-33.
With Cl.Cn1c(Nc2nc3ccccc3o2)nc2cc(C(=O)NCCN)ccc21 [Example 18, N-(2-aminoethyl)-2-(benzo[d]oxazol-2-ylamino)-1-methyl-1H-benzo[d]imidazole-5-carboxamide hydrochloride] the “Maximum Fold induction” value was 41-52.
For COCCn1c(Nc2nc3ccc(OC(F)(F)F)cc3o2)nc2cc(C(=O)O)ccc21 [Example 77, 1-(2-methoxyethyl)-2-((6-(trifluoromethoxy)benzo[d]oxazol-2-yl)amino)-1H-benzo[d]imidazole-5-carboxylic acid], the “Maximum Fold induction” value was 27-28.
CN(C)CC(=O)NCCNC(=O)c1ccc2c(c1)nc(Nc1nc3ccccc3o1)n2C [Example 19, 2-(benzo[d]oxazol-2-ylamino)-N-(2-(2-(dimethylamino)acetamido)ethyl)-1-methyl-1H-benzo[d]imidazole-5-carboxamide] was tested, and the “Maximum Fold induction” value was 14-26.
In the case of CN1CCC(n2c(Nc3nc4ccc(OC(F)(F)F)cc4s3)nc3cc(C(=O)O)ccc32)C1 (stereo not drawn) [Example 4d, 1-(1-methylpyrrolidin-3-yl)-2-((6-(trifluoromethoxy)benzo[d]thiazol-2-yl)amino)-1H-benzo[d]imidazole-5-carboxylic acid], the “Maximum Fold induction” value is reported as 29-33.
For CC(=O)N1CCc2nc(Nc3nc4cc(C(=O)NCCOCCO)ccc4n3C)sc2C1 [Example 10, 2-((5-acetyl-4,5,6,7-tetrahydrothiazolo[5,4-c]pyridin-2-yl)amino)-N-(2-(2-hydroxyethoxy)ethyl)-1-methyl-1H-benzo[d]imidazole-5-carboxamide], the “Maximum Fold induction” value was 2.
For Cn1c(Nc2nc3ccc(-c4cscn4)cc3o2)nc2cc(C(=O)NCCOCCO)ccc21 [Example 134, N-(2-(2-hydroxyethoxy)ethyl)-1-methyl-2-((6-(thiazol-4-yl)benzo[d]oxazol-2-yl)amino)-1H-benzo[d]imidazole-5-carboxamide], the “Maximum Fold induction” value was 42-70.
In the case of O=C(O)c1ccc2c(c1)nc(Nc1nc3ccc(OC(F)(F)F)cc3o1)n2C1CCOCC1 [Example 79, 1-(tetrahydro-2H-pyran-4-yl)-2-((6-(trifluoromethoxy)benzo[d]oxazol-2-yl)amino)-1H-benzo[d]imidazole-5-carboxylic acid], the “Maximum Fold induction” value is reported as 27-51.
With COCCn1c(Nc2nc3cc(OC(F)(F)F)ccc3[nH]2)nc2cc(C(=O)O)ccc21 [Example 75, 1-(2-methoxyethyl)-2-((5-(trifluoromethoxy)-1H-benzo[d]imidazol-2-yl)amino)-1H-benzo[d]imidazole-5-carboxylic acid] the “Maximum Fold induction” value was 15-25.
For Cn1c(Nc2nc3ccccc3o2)nc2cc(C(=O)NCCOCCO)c(F)cc21 [Example 72, 2-(benzo[d]oxazol-2-ylamino)-6-fluoro-N-(2-(2-hydroxyethoxy)ethyl)-1-methyl-1H-benzo[d]imidazole-5-carboxamide], the “Maximum Fold induction” value was 31-72.
With O=C(O)c1ccc2c(c1)nc(Nc1nc3ccc(OC(F)(F)F)cc3o1)n2CC1CCOC1 (stereo not drawn) [Example 87, 1-((tetrahydrofuran-3-yl)methyl)-2-((6-(trifluoromethoxy)-benzo[d]oxazol-2-yl)amino)-1H-benzo[d]imidazole-5-carboxylic acid] the “Maximum Fold induction” value was 21.
With Cn1c(Nc2nc3ccccc3o2)nc2cc(C(=O)NCCOCC(C)(C)O)ccc21 [Example 27, 2-(benzo[d]oxazol-2-ylamino)-N-(2-(2-hydroxy-2-methylpropoxy)ethyl)-1-methyl-1H-benzo[d]imidazole-5-carboxamide] the “Maximum Fold induction” value was 17.
In the case of Cn1c(Nc2nc3ccc(OCCO)cc3o2)nc2cc(C(=O)NCCO)ccc21 [Example 103, 2-((6-(2-hydroxyethoxy)benzo[d]oxazol-2-yl)amino)-N-(2-hydroxyethyl)-1-methyl-1H-benzo[d]imidazole-5-carboxamide], the “Maximum Fold induction” value is reported as 37-39.
With COCCONC(=O)c1ccc2c(c1)nc(Nc1nc3ccccc3o1)n2C [Example 119, 2-(benzo[d]oxazol-2-ylamino)-N-(2-methoxyethoxy)-1-methyl-1H-benzo[d]imidazole-5-carboxamide] the “Maximum Fold induction” value was 47-65.
For Cn1c(Nc2nc3ccc(C(F)(F)F)cc3o2)nc2cc(C(=O)NCCO)ccc21 [Example 33, N-(2-hydroxyethyl)-1-methyl-2-((6-(trifluoromethyl)benzo[d]oxazol-2-yl)amino)-1H-benzo[d]imidazole-5-carboxamide], the “Maximum Fold induction” value was 32-45.
In the case of COCCNC(=O)c1ccc2c(c1)nc(Nc1nc3cc(OC(F)(F)F)ccc3[nH]1)n2C1CCOCC1 [Example 81, N-(2-methoxyethyl)-1-(tetrahydro-2H-pyran-4-yl)-2-((5-(trifluoromethoxy)-1H-benzo[d]imidazol-2-yl)amino)-1H-benzo[d]imidazole-5-carboxamide], the “Maximum Fold induction” value is reported as 19-30.
For COCCOc1ccc2nc(Nc3nc4cc(C(=O)NOCCO)ccc4n3C)oc2c1 [Example 128, N-(2-hydroxyethoxy)-2-((6-(2-methoxyethoxy)benzo[d]oxazol-2-yl)amino)-1-methyl-1H-benzo[d]imidazole-5-carboxamide], the “Maximum Fold induction” value was 48-75.
For Cn1c(Nc2nc3ccc(OC(F)(F)F)cc3o2)nc2cc(C(=O)NC(CO)CO)ccc21 [Example 48, N-(1,3-dihydroxypropan-2-yl)-1-methyl-2-((6-(trifluoromethoxy)benzo[d]oxazol-2-yl)amino)-1H-benzo[d]imidazole-5-carboxamide], the “Maximum Fold induction” value was 13-20.

Same assay, conditions: human HMOX1 protein in HepG2 lysate, ELISA; * = average of 2 or more EC50 determinations; NA = Not Active
COCCNC(=O)c1ccc2c(c1)nc(Nc1nc3ccc(OC(F)(F)F)cc3o1)n2CC1CCOC1 (stereo not drawn) [Example 88, N-(2-methoxyethyl)-1-((tetrahydrofuran-3-yl)methyl)-2-((6-(trifluoromethoxy)benzo[d]oxazol-2-yl)amino)-1H-benzo[d]imidazole-5-carboxamide] showed an EC50 of 1500 nM.
